Measured values published in patent US6602516B1, “Antibiotic/medicated gutta percha point” (priority 2000, dated 2003).

Tests used:
[1] = system: patients; conditions: more than 1,000 patients; cited from earlier work
[2] = system: Escherchi coli; assay: Naval Dental School antibacterial study of iodoform/gutta percha (FIG. 1); format: cell-based; conditions: tested aerobe
Text: (§1) However, it is not as effective against an oral salivary leakage contamination as determined by the previous leakage and bacterial investigations.
(§2) FIG. 1 is a table illustrating the results from a study at Naval Dental School, Bethesda, Md., the iodoform/gutta percha disclosed in U.S. Pat. No. 5,648,403, issued Jul. 15, 1997.

[3] = system: Actinomyces; assay: as above; format: cell-based
Text: as §1, §2

[4] = system: Lactobacillus; assay: as above; format: cell-based
Text: as §1, §2

[5] = system: Prevotella intermedius; assay: as above; format: cell-based
Text: as §1, §2

[6] = system: Staphylococcus aureus; assay: as above; format: cell-based; conditions: tested aerobe
Text: as §1, §2

[7] = system: Streptococcus sanguis; assay: as above; format: cell-based; conditions: tested aerobe
Text: as §1, §2

[8] = system: Streptococcus mutans; assay: as above; format: cell-based; conditions: tested aerobe
Text: as §1, §2

[9] = system: Enterococci faecium; assay: as above; format: cell-based; conditions: facultative anaerobe
Text: as §1, §2

Row | Compound | allergic reactions [1] | effectiveness against Escherchi coli [2] | effectiveness against Actinomyces [3] | effectiveness against Lactobacillus [4] | effectiveness against Prevotella intermedius [5] | effectiveness against Staphylococcus aureus [6] | effectiveness against Streptococcus sanguis [7] | effectiveness against Streptococcus mutans [8] | effectiveness against Enterococci faecium [9]
1 | CN(C)[C@@H]1C(O)=C(C(N)=O)C(=O)[C@@]2(O)C(O)=C3C(=O)c4c(O)cccc4[C@@](C)(O)[C@H]3C[C@@H]12 [tetracycline] | no allergic reactions |  |  |  |  |  |  |  | 
2 | IC(I)I [Iodoform, Triiodomethane (Iodoform)] |  | ineffective | ineffective | ineffective | ineffective | ineffective | ineffective | ineffective | ineffective
